Source: paper PMC4189421, “Induction of Oligodendrocyte Differentiation and In Vitro Myelination by Inhibition of Rho-Associated Kinase” (ASN NEURO, 2014)

How the values were obtained:
[1] = system: mouse neurosphere-derived oligodendrocyte precursor cells (Nph-OPCs); assay: Morphology-based OPC differentiation assay (branches, outgrowth; high-content imaging); format: cell-based; details: mNph-OPC, 72 hr treatment, dose-response
Procedure: Neurospheres (Nph) were prepared from embryos at 14.5 days of gestation obtained from timed pregnant females of C57/Bl6 mice, as previously described ([Kornblum, Yanni, Easterday, & Seroogy, 2000]; [Pedraza, Monk, Lei, Hao, & Macklin, 2008]). In brief, after separation of meninges and cerebellum, cerebrum tissue was mechanically triturated with a 1-ml micropipette until total tissue dissociation was achieved, filtered through a 70 -µm cell strainer (Fisher Scientific, Pittsburgh, PA), and plated in 25-cm^2 plastic culture flasks (2 brains/flask). Nph proliferation media (NPM) consisted of Dulbecco’s Modified Eagle Medium (DMEM)/F12, B27 neuronal supplement (Gibco, Baltimore, MD) and 10 ng/ml […] (EGF; Sigma, St. Louis, MO). After 48 to 72 hr, floating Nphs were passaged at a 1 : 1 ratio into 75-cm^2 culture flasks. After a further 48 to 72 hr, they were passaged into 150-cm^2 flasks. Subsequent passages were performed every 3 to 4 days at a ratio of 1 : 2 or 1 : 3 in the same media, and Nph were used to generate OPCs for no more than 12 passages.
OPCs were generated by chemical disaggregation of Nph with a mouse neural progenitor dissociation kit following the manufacturer instructions (NeuroCult, StemCell Technologies, AB, Canada). The single-cell suspension was then filtered through a 40 -µm cell strainer and plated on poly-D-lysine (PDL)-coated plates. […]
To determine the effects of ROCK inhibition on OPCs, we developed a high-content image morphological analysis of OPC differentiation using mouse embryonic neural progenitor-derived OPCs (Nph-OPCs). […] Four images per well were analyzed using a neurite outgrowth module (Molecular Devices, Sunnyvale, CA). We quantified the number of branches and total outgrowth per cell (Figure 1). […] Additionally, nuclear staining by Hoechst allowed the accurate association of branches and processes to their corresponding cell bodies and permitted quantification of total cell numbers in each well.

mouse Nph-OPCs = assay: Cell proliferation as number of Hoechst-labeled nuclei; format: cell-based; details: 1 µM; n = 3 in triplicate wells; DMSO: 522 ± 126
Text: To determine the effects of ROCK inhibition on OPCs, we developed a high-content image morphological analysis of OPC differentiation using mouse embryonic neural progenitor-derived OPCs (Nph-OPCs). Neural progenitors grow as nonadherent spheroids known as neurospheres (Nph; [Chojnacki & Weiss, 2008]; [Tropepe et al., 1999]), which are considered to be a mixed population of neural stem cells and progenitors of the CNS ([Rao, 1999]; [Zhou & Chiang, 1998]). These cells have been previously used in multiple published studies for the generation of high-yield, high-purity cultures of OPCs from rodents ([Calaora et al., 2001]; [[…] al., 1997]; [Pedraza et al., 2008]). After 24 hr of plating on PDL-coated tissue culture plastic, Nph-OPCs were treated as indicated with differentiation stimuli and further incubated for 72 hr. […] Four images per well were analyzed using a neurite outgrowth module (Molecular Devices, Sunnyvale, CA). We quantified the number of branches and total outgrowth per cell (Figure 1). […] Additionally, nuclear staining by Hoechst allowed the accurate association of branches and processes to their corresponding cell bodies and permitted quantification of total cell numbers in each well. […]

rat mixed glial OPCs = assay: Myelin protein expression in rat mixed glia-derived OPCs (qPCR, MBP ELISA); format: cell-based
Procedure: Rat postnatal OPCs were obtained as described elsewhere according to the original procedure of [McCarthy and […] (1980)]. In brief, postnatal Day 1 rat pups were sacrificed, and cerebral cortices dissected and mechanically dissociated in medium composed of DMEM, 10% heat inactivated fetal bovine serum, and 5 μg/ml penicillin/streptomycin. Dissociated cells were plated and maintained in 75-cm^2 culture flasks for 10 days, replenishing with fresh media at Days 3 and 7. At Day 10, the flasks were shaken on a heated (37°C) shaker for 1 hr at 110 rpm to separate loosely attached microglial cells. The medium was replenished, and the cells incubated for the remainder of the day. To dislodge OPCs from the astrocyte monolayer, flasks were shaken overnight (210 rpm, 37°C). […] Cells were then plated on PDL-coated tissue culture plastic and treated with test compounds. […] The results are presented as specific mRNA expression relative to either β-actin or β-tubulin, used as internal controls as indicated. OPCs isolated from rat mixed glial cultures are known to mature readily in the absence of mitogens achieving a premyelinating OL stage as determined by the expression of the cell surface sulfatide O4, and the myelin proteins MBP and PLP among others ([Armstrong, 1998]; [Barbarese & Pfeiffer, 1981]; [[…], 1999]; [Jung-[…], Schumacher, Robel, & Baulieu, 1996]; [Konola, Tyler, Yamamura, & Lees, 1991]). They also display marked morphological changes, progressing from bipolar to multibranched cells generating membranous structures, and probably represent a later developmental stage than Nph-OPC. In rat mixed glial OPCs, we measured myelin protein expression at the RNA level by qPCR and MBP production by ELISA (MBL International, Woburn, MA).

[2] = system: MYPT1 phosphorylation in mNph-OPC; assay: MYPT1 phosphorylation (sandwich ELISA, western blot) as ROCK target engagement; details: 100 µM, 4-hr mNph-OPC treatment
Procedure: Tris-glycine acrylamide-bysacrylamide gradient gel electrophoresis was performed as follows: After washing the cells with ice-cold PBS, protein lysates were made by adding 50 µl of PhosphoSafe extraction reagent (EMD Millipore) supplemented with antiprotease cocktail (cOmplete; Roche, Branford, CT) onto each 100-mm^2 cell culture plate. After detaching the cells with the help of a cell scraper and disrupting cell membranes by sonication, the protein extracts were centrifuged (10,000 g, 10 min, 4℃) and the supernatants separated. Protein content was measured by the BCA protein determination method (Biorad, Hercules, CA), and 30 µg of total protein was mixed with SDS sample buffer (Laemmli) supplemented with 1% β-mercaptoethanol. After heating the samples to 70℃ for 10 min, they were loaded onto 4% to 20% acryl-bysacrylamide gradient gels, and electrophoresis was carried out at 120 volts with constant amperage.
Resolved proteins were then transferred onto nitrocellulose membranes using the iBlot methodology and device (Life technologies). […] Secondary detection was performed using Li-Cor IRDye secondary anti-mouse and anti-rabbit antibodies, and near-infrared signal was detected by Li-Cor’s Odyssey imaging system.
We assessed MYPT1 phosphorylation in Nph-OPCs treated for 4 hr with ROCK inhibitors in a dose-response experiment and using a sandwich ELISA as a measuring method (MBL International).

ROCKI = target: T1, ROCKI (Homo sapiens, UniProt Q13464); details: read-out: Activity, IC50 ROCKI, Table 1, ref Goodman et al., 2007, Nichols et al., 2009, heading: Activity; cited from earlier work
T1 construct: purchased EMD Millipore
T1 sequence (Q13464 whole entry, species assumed): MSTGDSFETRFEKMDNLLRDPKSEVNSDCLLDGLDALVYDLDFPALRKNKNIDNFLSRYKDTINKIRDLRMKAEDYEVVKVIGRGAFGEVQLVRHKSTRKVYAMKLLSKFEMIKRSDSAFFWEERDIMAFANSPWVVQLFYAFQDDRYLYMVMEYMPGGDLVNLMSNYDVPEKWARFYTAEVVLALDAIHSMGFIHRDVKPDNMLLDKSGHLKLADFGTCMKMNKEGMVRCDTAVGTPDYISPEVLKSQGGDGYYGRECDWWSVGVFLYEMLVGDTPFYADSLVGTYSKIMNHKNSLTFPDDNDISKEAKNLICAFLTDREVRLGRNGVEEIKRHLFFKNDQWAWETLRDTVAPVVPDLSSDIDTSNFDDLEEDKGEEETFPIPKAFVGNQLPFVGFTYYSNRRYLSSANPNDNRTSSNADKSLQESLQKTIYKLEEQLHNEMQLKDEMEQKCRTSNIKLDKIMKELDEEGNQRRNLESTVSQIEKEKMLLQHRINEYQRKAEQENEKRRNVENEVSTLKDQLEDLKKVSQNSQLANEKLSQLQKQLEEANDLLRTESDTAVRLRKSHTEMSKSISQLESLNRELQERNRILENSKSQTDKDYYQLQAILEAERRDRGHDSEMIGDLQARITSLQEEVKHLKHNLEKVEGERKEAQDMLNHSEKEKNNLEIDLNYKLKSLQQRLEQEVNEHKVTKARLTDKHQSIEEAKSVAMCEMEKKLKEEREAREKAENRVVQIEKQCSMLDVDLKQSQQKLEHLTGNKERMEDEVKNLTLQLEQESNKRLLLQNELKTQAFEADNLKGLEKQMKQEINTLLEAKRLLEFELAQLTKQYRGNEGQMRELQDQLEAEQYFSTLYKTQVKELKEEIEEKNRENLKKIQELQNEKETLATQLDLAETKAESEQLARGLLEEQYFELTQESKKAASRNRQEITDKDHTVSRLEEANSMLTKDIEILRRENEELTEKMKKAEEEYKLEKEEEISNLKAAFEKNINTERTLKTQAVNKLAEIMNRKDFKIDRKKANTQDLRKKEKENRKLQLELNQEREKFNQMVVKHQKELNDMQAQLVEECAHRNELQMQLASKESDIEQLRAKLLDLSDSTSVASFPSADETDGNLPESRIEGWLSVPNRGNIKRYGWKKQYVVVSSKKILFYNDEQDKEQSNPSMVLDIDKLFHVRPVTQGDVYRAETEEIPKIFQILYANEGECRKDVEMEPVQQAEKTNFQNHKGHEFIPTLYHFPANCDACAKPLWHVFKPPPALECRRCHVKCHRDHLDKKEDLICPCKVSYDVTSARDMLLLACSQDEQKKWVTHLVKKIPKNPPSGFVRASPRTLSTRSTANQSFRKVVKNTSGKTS

ROCKII = target: T2, ROCKII (Homo sapiens, UniProt O75116); details: read-out: Activity, IC50 ROCKII, Table 1, ref Goodman et al., 2007, Nichols et al., 2009, heading: Activity; cited from earlier work
T2 construct: purchased EMD Millipore
T2 sequence (O75116 whole entry, species assumed): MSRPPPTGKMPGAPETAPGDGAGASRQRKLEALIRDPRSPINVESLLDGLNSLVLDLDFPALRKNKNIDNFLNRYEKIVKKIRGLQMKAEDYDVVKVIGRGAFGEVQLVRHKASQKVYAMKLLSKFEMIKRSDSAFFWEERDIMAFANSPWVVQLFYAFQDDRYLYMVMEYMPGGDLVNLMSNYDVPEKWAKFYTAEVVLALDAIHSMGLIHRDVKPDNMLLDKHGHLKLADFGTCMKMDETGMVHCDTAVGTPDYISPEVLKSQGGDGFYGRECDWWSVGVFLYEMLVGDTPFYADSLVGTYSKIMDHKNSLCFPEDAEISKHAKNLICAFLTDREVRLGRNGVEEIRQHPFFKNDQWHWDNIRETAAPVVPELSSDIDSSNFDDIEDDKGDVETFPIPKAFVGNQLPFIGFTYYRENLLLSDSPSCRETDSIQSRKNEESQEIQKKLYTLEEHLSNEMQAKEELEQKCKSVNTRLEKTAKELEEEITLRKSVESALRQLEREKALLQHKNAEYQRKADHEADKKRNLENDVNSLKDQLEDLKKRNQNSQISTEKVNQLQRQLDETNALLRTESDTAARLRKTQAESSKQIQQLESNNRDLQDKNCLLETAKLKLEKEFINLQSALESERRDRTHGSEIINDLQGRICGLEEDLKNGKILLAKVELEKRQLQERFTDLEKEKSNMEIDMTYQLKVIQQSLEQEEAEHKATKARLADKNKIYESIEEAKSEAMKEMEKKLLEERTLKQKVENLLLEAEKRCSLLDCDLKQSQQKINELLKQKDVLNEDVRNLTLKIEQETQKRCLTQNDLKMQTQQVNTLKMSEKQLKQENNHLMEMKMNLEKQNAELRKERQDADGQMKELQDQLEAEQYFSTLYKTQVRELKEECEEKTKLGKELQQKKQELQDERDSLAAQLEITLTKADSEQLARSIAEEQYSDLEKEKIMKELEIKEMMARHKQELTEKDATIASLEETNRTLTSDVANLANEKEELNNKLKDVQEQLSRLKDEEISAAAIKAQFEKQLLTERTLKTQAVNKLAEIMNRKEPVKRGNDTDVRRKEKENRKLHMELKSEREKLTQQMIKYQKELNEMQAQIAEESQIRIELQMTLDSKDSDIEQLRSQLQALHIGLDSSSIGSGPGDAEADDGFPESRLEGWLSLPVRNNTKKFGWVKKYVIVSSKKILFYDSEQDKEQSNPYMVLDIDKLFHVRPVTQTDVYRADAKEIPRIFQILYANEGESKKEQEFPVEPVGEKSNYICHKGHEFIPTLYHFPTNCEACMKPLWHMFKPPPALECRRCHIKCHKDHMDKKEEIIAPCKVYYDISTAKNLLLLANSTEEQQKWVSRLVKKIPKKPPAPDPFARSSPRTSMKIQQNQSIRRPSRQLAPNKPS

Structure (SMILES)	OPC differentiation effect (processes and branches) [1]	Number of Hoechst-labeled nuclei (mouse Nph-OPCs) [cells/well]	Expression of MBP, PLP, and MOG mRNAs (qPCR) (rat mixed glial OPCs; 3 days maturation +4 days treatment, concentrations as low as 0.1 µM)	MBP at the protein level (ELISA) (rat mixed glial OPCs; treatments at 24 hr and 72 hr after plating)	Decrease of MYPT1 phosphorylation (ELISA) [2] [%]	IC50 ([1]; Mus musculus, Oligodendrocyte precursor cell, read-out: IC50, generation of branches in OPC differentiation assay) [nM]	IC50 (ROCKI) [nM]	IC50 (ROCKII) [nM]
O=S(=O)(c1cccc2cnccc12)N1CCCNCC1 [Fasudil]	minor differentiation effect	598 ± 21	significant increase	increased expression	60	–	–	–
CC1=C(C(=O)Nc2cc3cn[nH]c3cc2F)C(c2ccc(C(F)(F)F)cc2)CC(=O)N1 (centres unmarked) [GSK 429286, 4-[4-(trifluoromethyl)phenyl]-N-(6-fluoro-1H-indazol-5-yl)-2-methyl-6-oxo-1,4,5,6-tetrahydro-3-pyridinecarboxamide]	–	–	–	–	–	2300	14	48
